{"source": "patent US20090030086A1", "about": "“ANTIMICROBIAL AGENTS” (priority 2005, published 2009)", "key": {"S. aureus ATCC 29213": {"system": "S. aureus ATCC 29213", "assay": "MBC assay", "format": "cell-based, Staphylococcus aureus", "in_short": "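Follows an MIC assay; samples sub-cultured onto non-selective agar and inspected visually for growth to give the minimum lethal concentration. Culture on Mueller-Hinton medium, pH 7.2, aerobic, 37° C, 24 hours.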"}, "P. acnes NCTC 737": {"system": "P. acnes NCTC 737", "assay": "MBC assay", "format": "cell-based, Propionibacterium acnes", "in_short": "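Plates were then checked visually for growth. The MBC is the lowest lethal concentration; cultures were grown on Wilkins-Chalgren Anaerobe Medium at pH 6.0.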"}, "P. acnes PPR-007": {"system": "P. acnes PPR-007", "assay": "Disc diffusion assay (DDA)", "format": "cell-based, Propionibacterium acnes", "settings": "resistance Clin, 200 μg per disc", "experimental": "(§1) The Propionibacterium spp organisms were cultured and maintained on Wilkins-Chalgren Anaerobe Medium (agar and broth) at pH 6.0; cultures were incubated anaerobically at 37° C. for 72 hours.\n(§2) A sterile paper disc was impregnated with a sample of the test compound and a minimum of 30 minutes allowed for the solvents to evaporate as far as possible. The disc was then placed on an agar plate onto which the test micro-organism had been inoculated. The plate was then incubated under the conditions described above, following which it was examined visually for signs of bacterial growth. If the test compound had antimicrobial activity, a circular zone of no growth would be obtained around the disc. The diameter of this zone of “inhibition” was measured using a ProtoCOL™ automated zone sizer (Synbiosis, Cambridge, UK). In general, a greater diameter and/or area of the zone of inhibition indicates a greater antimicrobial activity in the relevant test compound, although other factors such as test compound mobility through the agar gel may also influence the result.\n(§3) The area of the zone of inhibition was calculated from the measured zone diameter (D) using the formula π(D/2)^2.\n(§4) For the DDA assays, 200 μg of TBHQ was loaded onto each disc. The solvent used for the TBHQ was ethanol."}, "P. acnes PRP-002": {"system": "P. acnes PRP-002", "assay": "Disc diffusion assay (DDA)", "format": "cell-based, Propionibacterium acnes", "settings": "resistance Tet/MLS, 200 μg per disc", "experimental": "as §1, §2, §3, §4"}, "P. acnes PRP-003": {"system": "P. acnes PRP-003", "assay": "Disc diffusion assay (DDA)", "format": "cell-based, Propionibacterium acnes", "settings": "resistance Tet, 200 μg per disc", "experimental": "as §1, §2, §3, §4"}, "P. acnes PRP-004": {"system": "P. acnes PRP-004", "assay": "Disc diffusion assay (DDA)", "format": "cell-based, Propionibacterium acnes", "settings": "resistance Tet, 200 μg per disc", "experimental": "as §1, §2, §3, §4"}, "P. acnes PRP-008": {"system": "P. acnes PRP-008", "assay": "Disc diffusion assay (DDA)", "format": "cell-based, Propionibacterium acnes", "settings": "resistance Clin, 200 μg per disc", "experimental": "as §1, §2, §3, §4"}, "P. acnes PRP-017": {"system": "P. acnes PRP-017", "assay": "Disc diffusion assay (DDA)", "format": "cell-based, Propionibacterium acnes", "settings": "resistance MLS, 200 μg per disc", "experimental": "as §1, §2, §3, §4"}, "P. acnes PRP-023": {"system": "P. acnes PRP-023", "assay": "Disc diffusion assay (DDA)", "format": "cell-based, Propionibacterium acnes", "settings": "resistance MLSK, 200 μg per disc", "experimental": "as §1, §2, §3, §4"}, "P. acnes PRP-026": {"system": "P. acnes PRP-026", "assay": "Disc diffusion assay (DDA)", "format": "cell-based, Propionibacterium acnes", "settings": "resistance MLS, 200 μg per disc", "experimental": "as §1, §2, §3, §4"}, "P. acnes PRP-046": {"system": "P. acnes PRP-046", "assay": "Disc diffusion assay (DDA)", "format": "cell-based, Propionibacterium acnes", "settings": "resistance None, 200 μg per disc", "experimental": "as §1, §2, §3, §4"}, "P. acnes PRP-053": {"system": "P. acnes PRP-053", "assay": "Disc diffusion assay (DDA)", "format": "cell-based, Propionibacterium acnes", "settings": "resistance Tet/MLS, 200 μg per disc", "experimental": "as §1, §2, §3, §4"}, "P. acnes PRP-059": {"system": "P. acnes PRP-059", "assay": "Disc diffusion assay (DDA)", "format": "cell-based, Propionibacterium acnes", "settings": "resistance MLS, 200 μg per disc", "experimental": "as §1, §2, §3, §4"}, "P. acnes PRP-068": {"system": "P. acnes PRP-068", "assay": "Disc diffusion assay (DDA)", "format": "cell-based, Propionibacterium acnes", "settings": "resistance Ery, 200 μg per disc", "experimental": "as §1, §2, §3, §4"}, "P. acnes PRP-101": {"system": "P. acnes PRP-101", "assay": "Disc diffusion assay (DDA)", "format": "cell-based, Propionibacterium acnes", "settings": "resistance Tet/MLS, 200 μg per disc", "experimental": "as §1, §2, §3, §4"}, "P. acnes PRP-102": {"system": "P. acnes PRP-102", "assay": "Disc diffusion assay (DDA)", "format": "cell-based, Propionibacterium acnes", "settings": "resistance Tet/MLS, 200 μg per disc", "experimental": "as §1, §2, §3, §4"}, "P. granulosum PPR-006": {"system": "P. granulosum PPR-006", "assay": "Disc diffusion assay (DDA)", "format": "cell-based", "settings": "resistance MLS, 200 μg per disc", "experimental": "as §1, §2, §3, §4"}, "P. granulosum PRP-005": {"system": "P. granulosum PRP-005", "assay": "Disc diffusion assay (DDA)", "format": "cell-based", "settings": "resistance MLSK, 200 μg per disc", "experimental": "as §1, §2, §3, §4"}, "P. granulosum PRP-043": {"system": "P. granulosum PRP-043", "assay": "Disc diffusion assay (DDA)", "format": "cell-based", "settings": "resistance MLS, 200 μg per disc", "experimental": "as §1, §2, §3, §4"}, "P. granulosum PRP-044": {"system": "P. granulosum PRP-044", "assay": "Disc diffusion assay (DDA)", "format": "cell-based", "settings": "resistance MLS, 200 μg per disc", "experimental": "as §1, §2, §3, §4"}, "P. granulosum PRP-055": {"system": "P. granulosum PRP-055", "assay": "Disc diffusion assay (DDA)", "format": "cell-based", "settings": "resistance None, 200 μg per disc", "experimental": "as §1, §2, §3, §4"}, "P. acnes PRP-010": {"system": "P. acnes PRP-010", "assay": "Disc diffusion assay (DDA)", "format": "cell-based, Propionibacterium acnes", "settings": "resistance MLSK, 200 μg per disc", "experimental": "Other propionibacterial strains were also tested, as described in Example 4 below. These included certain antibiotic resistant propionibacteria, such as the two P. acnes strains designated PRP-010 and PRP-039 which are resistant respectively to macrolides-lincosamides-streptogramins-ketolides (MLSK) and to macrolides-lincosamides-streptogramins (MLS) and tetracycline—in other words, PRP-010 is resistant to erythromycin and clindamycin, and PRP-039 to erythromycin, clindamycin and tetracycline.\nas §1\nA sterile paper disc was impregnated with a sample of the test compound and a minimum of 30 minutes allowed for the solvents to evaporate as far as possible. The disc was then placed on an agar plate onto which the test micro-organism had been inoculated. The plate was then incubated under the conditions described above, following which it was examined visually for signs of bacterial growth. […] The diameter of this zone of “inhibition” was measured using a ProtoCOL™ automated zone sizer (Synbiosis, Cambridge, UK). […]\nThe area of the zone of inhibition was calculated from the measured zone diameter (D) using the formula π(D/2)^2. […]"}, "H. influenzae ATCC 49247 [1]": {"system": "H. influenzae ATCC 49247", "assay": "MBC assay", "format": "cell-based, Haemophilus influenzae", "experimental": "(§5) The H. influenzae strain was cultured and maintained on Haemophilus Test Medium (HTM) agar/broth (the composition of which is as described in NCCLS M7-A6 Vol. 23 No. 2); cultures were incubated in a CO2 atmosphere at 37° C. for 24 hours.\nThis assay, normally carried out after an MIC assay, determines the minimum concentration of a compound that is lethal to the micro-organism being tested.\nThese samples were then individually sub-cultured on non-selective agar medium, under the incubation conditions described above. Following incubation they were examined visually for bacterial growth.\nThe activity of TBHQ against three other bacterial strains was investigated using MIC, MBC and DDA assays as described above. For the DDA assays, 200 μg of TBHQ was loaded onto each disc, using ethanol as the solvent."}, "H. influenzae ATCC 49247 [2]": {"system": "H. influenzae ATCC 49247", "assay": "Disc diffusion assay (DDA)", "format": "cell-based, Haemophilus influenzae", "settings": "200 μg per disc", "experimental": "as §5, §2, §3\nThe activity of TBHQ against three other bacterial strains was investigated using MIC, MBC and DDA assays as described above. […]"}}}
{"smiles": "CC(C)(C)c1cc(O)ccc1O", "note": "[TBHQ, 2-t-butyl hydroquinone]", "values": [{"measurement": "MIC/MBC ratio", "setting": "S. aureus ATCC 29213", "result": 1}, {"measurement": "MIC/MBC ratio", "setting": "P. acnes NCTC 737; P. acnes NCTC 737", "result": 0.5}, {"measurement": "MBC", "setting": "P. acnes NCTC 737; P. acnes NCTC 737 (Table 6), resistance None", "result": 15.6, "unit": "µg/mL"}, {"measurement": "DDA", "setting": "P. acnes PPR-007", "result": 13.43, "unit": "mm"}, {"measurement": "DDA", "setting": "P. acnes PRP-002", "result": 28.42, "unit": "mm"}, {"measurement": "DDA", "setting": "P. acnes PRP-003", "result": 38.01, "unit": "mm"}, {"measurement": "DDA", "setting": "P. acnes PRP-004", "result": 30.32, "unit": "mm"}, {"measurement": "DDA", "setting": "P. acnes PRP-008", "result": 14.47, "unit": "mm"}, {"measurement": "DDA", "setting": "P. acnes PRP-017", "result": 18.40, "unit": "mm"}, {"measurement": "DDA", "setting": "P. acnes PRP-023", "result": 23.90, "unit": "mm"}, {"measurement": "DDA", "setting": "P. acnes PRP-026", "result": 8.18, "unit": "mm"}, {"measurement": "DDA", "setting": "P. acnes PRP-046", "result": 17.46, "unit": "mm"}, {"measurement": "DDA", "setting": "P. acnes PRP-053", "result": 23.49, "unit": "mm"}, {"measurement": "DDA", "setting": "P. acnes PRP-059", "result": 17.56, "unit": "mm"}, {"measurement": "DDA", "setting": "P. acnes PRP-068", "result": 20.89, "unit": "mm"}, {"measurement": "DDA", "setting": "P. acnes PRP-101", "result": 0.0, "unit": "mm"}, {"measurement": "DDA", "setting": "P. acnes PRP-102", "result": 23.80, "unit": "mm"}, {"measurement": "DDA", "setting": "P. granulosum PPR-006", "result": 20.00, "unit": "mm"}, {"measurement": "DDA", "setting": "P. granulosum PRP-005", "result": 0.00, "unit": "mm"}, {"measurement": "DDA", "setting": "P. granulosum PRP-043", "result": 10.56, "unit": "mm"}, {"measurement": "DDA", "setting": "P. granulosum PRP-044", "result": 10.70, "unit": "mm"}, {"measurement": "DDA", "setting": "P. granulosum PRP-055", "result": 13.07, "unit": "mm"}, {"measurement": "DDA", "setting": "P. acnes PRP-010", "result": 18.71, "unit": "mm"}, {"measurement": "MIC/MBC ratio", "setting": "H. influenzae ATCC 49247 [1]", "result": 1}, {"measurement": "MBC", "setting": "H. influenzae ATCC 49247 [1]; Haemophilus influenzae, ATCC49247", "result": 15.6, "unit": "µg/mL"}, {"measurement": "DDA", "setting": "H. influenzae ATCC 49247 [2]", "result": 36.33, "unit": "mm"}]}
